In ChEMBL document CHEMBL1201862, “PubChem BioAssay data set” (2004):
The source made the active and inactive calls.

What was measured:
Type in all cases: functional
[1] = molecular target: T1, Mitochondrial peptide methionine sulfoxide reductase (Bos taurus, UniProt P54149); experiment: Absorbance-based biochemical high throughput dose response assay for activators of Methionine sulfoxide reductase A (MsrA).
T1 sequence (P54149 whole entry): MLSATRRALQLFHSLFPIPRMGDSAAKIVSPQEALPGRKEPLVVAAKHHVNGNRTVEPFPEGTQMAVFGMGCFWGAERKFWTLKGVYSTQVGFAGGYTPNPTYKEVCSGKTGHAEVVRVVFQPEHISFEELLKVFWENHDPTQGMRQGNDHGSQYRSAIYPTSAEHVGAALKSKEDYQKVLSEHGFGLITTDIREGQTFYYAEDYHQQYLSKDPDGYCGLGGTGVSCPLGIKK

[2] = molecular target: Serine/threonine-protein kinase PAK 4 (Homo sapiens, UniProt O96013);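 further: value obtained within a kinome profiling panel in which PAK4 was one of the panel members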
[3] = molecular target: Mitogen-activated protein kinase 8 (Homo sapiens, UniProt P45983);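 further: value comes from one member of a kinome-wide kinase profiling panel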
[4] = molecular target: 5'-AMP-activated protein kinase catalytic subunit alpha-1 (Homo sapiens, UniProt Q13131)
[5] = molecular target: Serine/threonine-protein kinase pim-1 (Homo sapiens, UniProt P11309)
Aurora kinase B = Aurora kinase B (Homo sapiens, UniProt Q96GD4)
[6] = molecular target: Cyclin-dependent kinase 7 (Homo sapiens, UniProt P50613);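 further: value comes from a kinome-wide kinase profiling panel in which CDK7 is one member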
[7] = molecular target: Protein kinase C theta type (Homo sapiens, UniProt Q04759); experiment: Navigating the Kinome. Panel member name: PRKCQ
[8] = molecular target: T2, Tyrosine-protein kinase JAK3 (Homo sapiens, UniProt P52333)
T2 sequence (P52333 whole entry): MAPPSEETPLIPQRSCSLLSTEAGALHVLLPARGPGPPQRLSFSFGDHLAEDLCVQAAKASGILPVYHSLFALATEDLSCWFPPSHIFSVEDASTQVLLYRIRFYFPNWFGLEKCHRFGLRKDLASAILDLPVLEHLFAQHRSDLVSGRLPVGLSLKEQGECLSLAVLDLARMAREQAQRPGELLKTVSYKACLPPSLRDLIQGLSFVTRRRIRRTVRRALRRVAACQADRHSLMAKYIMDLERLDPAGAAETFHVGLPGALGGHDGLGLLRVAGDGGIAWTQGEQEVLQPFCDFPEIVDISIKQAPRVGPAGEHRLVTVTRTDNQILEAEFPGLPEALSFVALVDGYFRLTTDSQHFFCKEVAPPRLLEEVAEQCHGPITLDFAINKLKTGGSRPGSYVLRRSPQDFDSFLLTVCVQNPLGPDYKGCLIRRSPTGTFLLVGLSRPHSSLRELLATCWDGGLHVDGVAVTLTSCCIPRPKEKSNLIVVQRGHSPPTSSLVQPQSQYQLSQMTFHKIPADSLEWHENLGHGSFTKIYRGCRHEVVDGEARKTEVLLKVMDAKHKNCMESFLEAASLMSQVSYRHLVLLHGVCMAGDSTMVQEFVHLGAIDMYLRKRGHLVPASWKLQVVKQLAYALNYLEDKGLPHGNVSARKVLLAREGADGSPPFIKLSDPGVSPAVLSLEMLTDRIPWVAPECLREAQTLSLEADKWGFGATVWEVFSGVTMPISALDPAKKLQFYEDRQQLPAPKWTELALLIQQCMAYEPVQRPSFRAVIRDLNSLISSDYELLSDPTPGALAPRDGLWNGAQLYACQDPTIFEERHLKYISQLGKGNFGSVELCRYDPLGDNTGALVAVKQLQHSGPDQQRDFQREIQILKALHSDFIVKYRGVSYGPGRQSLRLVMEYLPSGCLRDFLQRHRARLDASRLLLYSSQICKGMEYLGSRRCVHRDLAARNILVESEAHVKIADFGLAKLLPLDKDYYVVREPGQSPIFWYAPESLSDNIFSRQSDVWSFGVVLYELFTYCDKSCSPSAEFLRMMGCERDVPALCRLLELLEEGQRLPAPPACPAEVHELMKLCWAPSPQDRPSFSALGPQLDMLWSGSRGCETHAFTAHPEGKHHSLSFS

[9] = molecular target: T3, Serine/threonine-protein kinase Chk1 (Homo sapiens, UniProt O14757);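 further: measured as one member of a kinome-wide kinase profiling panel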
T3 sequence (O14757 whole entry): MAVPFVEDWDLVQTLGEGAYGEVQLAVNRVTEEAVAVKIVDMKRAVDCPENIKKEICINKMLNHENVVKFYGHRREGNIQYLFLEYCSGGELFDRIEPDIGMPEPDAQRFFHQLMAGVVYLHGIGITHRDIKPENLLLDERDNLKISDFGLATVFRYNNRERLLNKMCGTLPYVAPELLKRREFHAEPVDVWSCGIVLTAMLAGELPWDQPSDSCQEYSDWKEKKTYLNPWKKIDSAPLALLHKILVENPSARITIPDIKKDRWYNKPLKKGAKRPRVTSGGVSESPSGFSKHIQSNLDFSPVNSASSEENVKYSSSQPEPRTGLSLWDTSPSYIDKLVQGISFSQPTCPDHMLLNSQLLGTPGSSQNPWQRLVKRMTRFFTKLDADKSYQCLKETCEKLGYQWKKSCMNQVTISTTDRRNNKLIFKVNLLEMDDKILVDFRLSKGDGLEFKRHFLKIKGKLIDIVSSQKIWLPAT

[10] = molecular target: Insulin-like growth factor 1 receptor (Homo sapiens, UniProt P08069); experiment: Navigating the Kinome. Panel member name: IGF1R
[11] = molecular target: Hepatocyte growth factor receptor (Homo sapiens, UniProt P08581);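 further: kinase panel profiling across the kinome, with MET as the panel member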
Activin receptor type-1 = molecular target: T4, Activin receptor type-1 (Homo sapiens, UniProt Q04771); experiment: Navigating the Kinome. Panel member name: ACVR1
T4 sequence (Q04771 whole entry): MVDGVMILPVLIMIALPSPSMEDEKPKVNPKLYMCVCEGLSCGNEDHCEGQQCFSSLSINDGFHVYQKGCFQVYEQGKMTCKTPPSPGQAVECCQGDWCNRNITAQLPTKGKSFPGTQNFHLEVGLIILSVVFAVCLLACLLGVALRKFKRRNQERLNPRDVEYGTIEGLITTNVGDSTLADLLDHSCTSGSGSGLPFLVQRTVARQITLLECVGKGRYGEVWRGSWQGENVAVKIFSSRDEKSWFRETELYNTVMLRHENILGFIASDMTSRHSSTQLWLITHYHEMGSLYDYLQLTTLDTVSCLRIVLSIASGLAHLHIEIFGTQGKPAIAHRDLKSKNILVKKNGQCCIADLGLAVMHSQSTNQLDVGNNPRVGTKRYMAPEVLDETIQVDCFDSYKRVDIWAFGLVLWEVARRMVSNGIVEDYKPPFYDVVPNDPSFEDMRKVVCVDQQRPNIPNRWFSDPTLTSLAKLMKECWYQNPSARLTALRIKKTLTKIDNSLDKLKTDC

Mitogen-activated protein kinase 8, sequence (P45983 whole entry): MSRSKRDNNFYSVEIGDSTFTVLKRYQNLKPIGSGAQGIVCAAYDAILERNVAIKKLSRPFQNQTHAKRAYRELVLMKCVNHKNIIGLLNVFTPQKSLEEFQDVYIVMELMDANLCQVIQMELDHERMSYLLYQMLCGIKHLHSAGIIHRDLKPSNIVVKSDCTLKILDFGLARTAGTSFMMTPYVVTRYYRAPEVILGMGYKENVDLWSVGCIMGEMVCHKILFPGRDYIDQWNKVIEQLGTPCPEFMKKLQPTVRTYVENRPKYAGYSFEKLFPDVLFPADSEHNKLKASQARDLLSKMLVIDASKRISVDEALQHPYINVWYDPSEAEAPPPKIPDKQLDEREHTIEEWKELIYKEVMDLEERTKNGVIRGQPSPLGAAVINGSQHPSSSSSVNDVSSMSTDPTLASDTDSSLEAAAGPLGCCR
Cyclin-dependent kinase 7, sequence (P50613 whole entry): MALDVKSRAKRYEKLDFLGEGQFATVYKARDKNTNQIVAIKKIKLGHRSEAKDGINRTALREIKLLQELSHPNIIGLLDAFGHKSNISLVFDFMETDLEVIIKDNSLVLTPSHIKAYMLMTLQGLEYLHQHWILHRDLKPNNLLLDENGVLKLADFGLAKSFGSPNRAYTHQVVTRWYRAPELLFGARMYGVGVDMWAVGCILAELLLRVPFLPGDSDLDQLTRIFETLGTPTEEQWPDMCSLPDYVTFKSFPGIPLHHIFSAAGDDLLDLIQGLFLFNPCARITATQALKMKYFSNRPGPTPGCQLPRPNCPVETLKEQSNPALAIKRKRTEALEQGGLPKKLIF
5'-AMP-activated protein kinase catalytic subunit alpha-1, sequence (Q13131 whole entry): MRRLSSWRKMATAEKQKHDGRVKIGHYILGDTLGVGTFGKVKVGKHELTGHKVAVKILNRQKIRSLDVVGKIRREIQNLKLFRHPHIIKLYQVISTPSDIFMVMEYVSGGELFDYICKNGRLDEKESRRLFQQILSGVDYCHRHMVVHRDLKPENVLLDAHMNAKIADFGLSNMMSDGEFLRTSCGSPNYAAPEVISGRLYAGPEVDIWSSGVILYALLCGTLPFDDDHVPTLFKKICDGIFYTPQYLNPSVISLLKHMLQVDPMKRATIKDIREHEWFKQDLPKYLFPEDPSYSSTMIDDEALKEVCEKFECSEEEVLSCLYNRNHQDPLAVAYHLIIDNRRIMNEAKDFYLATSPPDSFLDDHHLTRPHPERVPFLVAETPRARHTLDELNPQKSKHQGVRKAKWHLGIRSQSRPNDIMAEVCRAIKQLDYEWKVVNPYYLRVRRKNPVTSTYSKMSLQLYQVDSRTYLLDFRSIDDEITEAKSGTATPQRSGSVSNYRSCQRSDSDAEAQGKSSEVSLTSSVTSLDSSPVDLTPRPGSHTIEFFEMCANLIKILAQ
Protein kinase C theta type, sequence (Q04759 whole entry): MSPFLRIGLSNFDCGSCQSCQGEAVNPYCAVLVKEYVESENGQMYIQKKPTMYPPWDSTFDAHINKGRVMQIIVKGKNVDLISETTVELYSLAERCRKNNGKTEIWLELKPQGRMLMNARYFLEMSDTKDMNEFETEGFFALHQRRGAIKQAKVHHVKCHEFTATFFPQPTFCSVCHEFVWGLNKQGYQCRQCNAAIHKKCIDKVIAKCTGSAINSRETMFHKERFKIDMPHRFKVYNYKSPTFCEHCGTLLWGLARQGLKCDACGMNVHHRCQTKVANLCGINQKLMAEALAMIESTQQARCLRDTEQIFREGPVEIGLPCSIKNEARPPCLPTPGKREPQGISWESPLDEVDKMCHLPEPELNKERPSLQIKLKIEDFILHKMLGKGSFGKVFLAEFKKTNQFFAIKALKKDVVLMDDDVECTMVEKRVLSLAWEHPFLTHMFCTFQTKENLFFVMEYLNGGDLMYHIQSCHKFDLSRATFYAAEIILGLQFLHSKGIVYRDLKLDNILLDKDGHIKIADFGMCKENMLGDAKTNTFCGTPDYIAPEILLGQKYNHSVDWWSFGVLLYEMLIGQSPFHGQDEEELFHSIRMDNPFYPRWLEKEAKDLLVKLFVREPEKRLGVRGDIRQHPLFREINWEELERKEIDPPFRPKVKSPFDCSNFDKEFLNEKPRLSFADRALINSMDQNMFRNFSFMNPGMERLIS
Serine/threonine-protein kinase pim-1, sequence (P11309 whole entry): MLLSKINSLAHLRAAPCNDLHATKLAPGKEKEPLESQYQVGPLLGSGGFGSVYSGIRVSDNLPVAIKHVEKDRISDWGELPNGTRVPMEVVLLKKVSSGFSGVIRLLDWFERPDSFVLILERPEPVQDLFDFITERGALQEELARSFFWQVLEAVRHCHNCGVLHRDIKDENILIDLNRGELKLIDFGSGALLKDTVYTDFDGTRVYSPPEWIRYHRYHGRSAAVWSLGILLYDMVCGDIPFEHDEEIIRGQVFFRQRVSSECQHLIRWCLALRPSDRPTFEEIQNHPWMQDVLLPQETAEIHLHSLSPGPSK
Serine/threonine-protein kinase PAK 4, sequence (O96013 whole entry): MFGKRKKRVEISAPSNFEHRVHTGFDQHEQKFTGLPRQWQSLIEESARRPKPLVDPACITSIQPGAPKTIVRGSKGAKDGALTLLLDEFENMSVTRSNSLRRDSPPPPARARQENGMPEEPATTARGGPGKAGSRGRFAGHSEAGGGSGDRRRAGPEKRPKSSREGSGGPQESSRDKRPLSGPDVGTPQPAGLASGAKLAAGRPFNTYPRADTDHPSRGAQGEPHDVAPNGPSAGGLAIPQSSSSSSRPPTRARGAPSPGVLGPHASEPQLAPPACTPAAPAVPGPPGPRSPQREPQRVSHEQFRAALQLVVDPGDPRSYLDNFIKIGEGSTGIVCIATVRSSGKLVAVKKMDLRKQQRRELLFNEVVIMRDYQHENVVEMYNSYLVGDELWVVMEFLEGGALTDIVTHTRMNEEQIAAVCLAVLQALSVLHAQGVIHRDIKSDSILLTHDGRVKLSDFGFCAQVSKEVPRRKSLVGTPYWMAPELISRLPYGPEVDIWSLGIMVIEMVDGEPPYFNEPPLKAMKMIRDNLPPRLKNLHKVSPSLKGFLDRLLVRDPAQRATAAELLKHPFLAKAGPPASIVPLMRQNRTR
Aurora kinase B, sequence (Q96GD4 whole entry): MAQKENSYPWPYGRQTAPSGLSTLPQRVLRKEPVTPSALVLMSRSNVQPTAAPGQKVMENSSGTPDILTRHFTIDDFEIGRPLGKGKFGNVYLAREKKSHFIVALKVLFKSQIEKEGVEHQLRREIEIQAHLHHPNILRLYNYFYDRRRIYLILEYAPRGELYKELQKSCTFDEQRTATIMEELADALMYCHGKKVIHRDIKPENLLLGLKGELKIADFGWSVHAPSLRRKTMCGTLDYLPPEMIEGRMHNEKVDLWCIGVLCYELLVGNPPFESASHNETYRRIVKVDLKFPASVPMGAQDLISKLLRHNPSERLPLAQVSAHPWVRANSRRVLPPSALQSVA
Insulin-like growth factor 1 receptor, sequence (P08069 31-736 limits assumed): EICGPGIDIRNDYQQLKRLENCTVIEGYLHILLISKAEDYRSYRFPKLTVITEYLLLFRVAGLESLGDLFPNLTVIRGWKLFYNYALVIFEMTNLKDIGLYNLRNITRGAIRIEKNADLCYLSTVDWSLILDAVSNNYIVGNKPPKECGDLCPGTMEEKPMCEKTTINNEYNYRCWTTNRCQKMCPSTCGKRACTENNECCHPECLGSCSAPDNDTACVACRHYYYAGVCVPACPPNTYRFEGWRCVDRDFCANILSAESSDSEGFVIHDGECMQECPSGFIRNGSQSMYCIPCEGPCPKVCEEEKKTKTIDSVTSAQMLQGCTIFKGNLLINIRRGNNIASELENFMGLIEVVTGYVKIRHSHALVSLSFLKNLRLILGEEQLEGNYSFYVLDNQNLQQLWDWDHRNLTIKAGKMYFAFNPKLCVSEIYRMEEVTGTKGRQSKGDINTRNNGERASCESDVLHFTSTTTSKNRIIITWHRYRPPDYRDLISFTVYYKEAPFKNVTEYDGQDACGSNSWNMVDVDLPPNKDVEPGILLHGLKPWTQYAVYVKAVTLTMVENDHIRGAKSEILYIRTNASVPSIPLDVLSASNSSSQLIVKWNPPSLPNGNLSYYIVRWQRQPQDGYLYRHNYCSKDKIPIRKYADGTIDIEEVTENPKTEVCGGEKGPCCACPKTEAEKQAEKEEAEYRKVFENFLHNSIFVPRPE
Insulin-like growth factor 1 receptor, sequence (P08069 741-1367 limits assumed): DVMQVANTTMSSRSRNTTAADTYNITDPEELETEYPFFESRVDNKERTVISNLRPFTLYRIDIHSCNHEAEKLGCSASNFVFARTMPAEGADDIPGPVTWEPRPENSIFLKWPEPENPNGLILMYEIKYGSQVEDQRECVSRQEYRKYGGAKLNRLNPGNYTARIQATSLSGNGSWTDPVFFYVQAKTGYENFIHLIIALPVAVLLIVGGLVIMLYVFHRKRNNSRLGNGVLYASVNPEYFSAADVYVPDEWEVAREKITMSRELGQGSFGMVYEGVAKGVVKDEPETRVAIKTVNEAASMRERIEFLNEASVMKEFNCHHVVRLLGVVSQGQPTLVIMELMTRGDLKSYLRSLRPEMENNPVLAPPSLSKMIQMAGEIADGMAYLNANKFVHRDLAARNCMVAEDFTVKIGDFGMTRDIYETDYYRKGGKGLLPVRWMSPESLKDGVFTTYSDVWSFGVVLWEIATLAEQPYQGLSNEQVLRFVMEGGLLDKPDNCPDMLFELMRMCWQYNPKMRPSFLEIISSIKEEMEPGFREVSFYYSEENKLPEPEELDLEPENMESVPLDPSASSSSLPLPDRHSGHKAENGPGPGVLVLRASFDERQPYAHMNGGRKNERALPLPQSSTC

| Ki [2] | Ki [3] | Ki [4] | Ki [5] | Ki (Aurora kinase B) | Ki [6] | Ki [7] | Ki [8] | Ki [9] | Ki [10] | Ki [11] | Ki (Activin receptor type-1) | Compound | EC50 [1] | other results |
| --- | --- | --- | --- | --- | --- | --- | --- | --- | --- | --- | --- | --- | --- | --- |
|  |  |  |  |  |  |  |  |  |  |  |  | O=C(COC(=O)c1ccc([N+](=O)[O-])s1)Nc1ccc(F)cc1 | > 104 µM (inactive) |  |
|  |  |  |  |  |  |  |  |  |  |  |  | CCN(CC)CCCC(C)n1c2nc(=O)[nH]c(=O)c-2nc2cc(Cl)ccc21 (stereo unspecified) | 32.9 µM (inactive) |  |
| 0.0251 µM (active) | 0.251 µM (active) | 0.126 µM (active) | 1 µM (active) | 0.501 µM (active) | 0.251 µM (active) | 0.0158 µM (active) | 0.0501 µM (active) | 0.398 µM (active) | > 2 µM (inactive) | > 3.16 µM (inactive) | 1.26 µM (active) | OC1CCC(Nc2nc(Cl)cc(-c3c[nH]c4ncccc34)n2)CC1 (stereo unspecified) |  | pKi [2]: 7.6; pKi [3]: 6.6; pKi [4]: 6.9; pKi [5]: 6; pKi (Aurora kinase B): 6.3; pKi [6]: 6.6; pKi [7]: 7.8; pKi [8]: 7.3; pKi [9]: 6.4; pKi (Activin receptor type-1): 5.9 |
| > 5.01 µM (inactive) | > 5.01 µM (inactive) | > 3.16 µM (inactive) | > 6.31 µM (inactive) | > 3.98 µM (inactive) | > 3.98 µM (inactive) | 1 µM (active) | > 5.01 µM (inactive) | > 3.16 µM (inactive) | > 2.51 µM (inactive) | > 2.51 µM (inactive) | > 3.98 µM (inactive) | COc1cccc(CNC(=O)c2cnc(-c3ccncc3)nc2)c1 |  |  |
